Test results as given in patent US20240351988A1, “ARYL HYDROCARBON RECEPTOR MODULATORS AND THEIR USE IN THE TREATMENT OF DISEASES AND DISORDERS” (Allianthera (Suzhou) Biopharmaceutical Co., Ltd., priority 2021, published 2024).
pIC50: −log10 of the molar value.

Tests used:
[1] = tested on: CT26 tumor cells; test: Anti-tumor activity in mice bearing CT26 tumors; format: in vivo, BALB/C mouse; details: CT26, female BALB/C; compound 10 mg/kg orally 16 days; anti PD-1 10 mg/kg i.p. twice every week; FIG. 1
Experimental: Female BALB/C mouse was inoculated subcutaneously on the right flank with CT26 tumor cells (3×10^5) in 0.1 ml of RPMI 1640 Medium without serum for tumor development. Mice were randomized into 4 groups according to body weight on Day 4 after inoculation. The tumor-bearing mice were treated with Vehicle, anti PD-1 antibody (RMP1-14, BioXCell Catalog No. BP0146), a AHR antagonist compound as disclosed herein and a combination therapy of a AHR antagonist compound as disclosed herein and the anti PD-1 (or established treatment). The AHR antagonist compound was dosed orally at for example 10 mg/kg alone or in combination with established treatment for 16 days. When the established treatment was PD-1 antibody, the antibody was administered via intraperitoneal injection at 10 mg/kg, twice every week.

[2] = tested on: AHR-regulated gene CYP1A1 in human monocytic U937 cell line; test: AHR-regulated CYP1A1 expression in U937 cells (qPCR, kynurenic acid stimulated); format: cell-based; details: U-937, 200 μM KA, 16 hours, CYP1A1 vs GAPDH, read-out: Cyp ANATAG mode assay: IC50
Experimental: To evaluate the AHR inhibitory activity of the test compounds, quantitative PCR analysis was used to determine expression level of the AHR-regulated gene CYP1A1 in a human monocytic U937 cell line upon stimulation of 200 μM kynurenic acid (KA) in the absence or presence of AHR inhibitor. U937 cells were seeded at a concentration of 5×10^5 cells/well in 200 μL of growth medium in 96-well cell culture microplates. CYP1A1 expression was induced with 200 μM KA (positive control) in the absence or presence of the test compounds for 16 hours. Human U937 cells were typically incubated with eight different concentrations of test compounds (typical dilution: […], 3.2 nM, 16 nM, 80 nM, 400 nM, 2 μM, 10 μM) and analyzed in duplicate on the same cell culture microplate. After stimulation, the media was removed, the cell RNA was isolated using RNeasy Mini Kit (Qiagen, 74104) and reverse-transcribed to cDNA using PrimeScript RT reagent Kit (Perfect Real Time) (TaKaRa, RR037A). Unstimulated cells were used as the negative control. Taqman probes for human CYP1A1 (Hs01054797_g1) and human GAPDH (Hs02786624_g1) were used to analyze fold expression of CYP1A1 of GAPDH.

[3] = target: T1, Human Aryl Hydrocarbon Receptor (AhR) (Homo sapiens, UniProt P35869); test: AHR antagonist reporter assay in human cell line (INDIGO AhR Reporter Assay System, kynurenic acid activated); format: cell-based; details: 200 μM kynurenic acid, 24 hours, luciferase; read-out: AhR Reporter Assay KA Antagonist Mode: IC50
T1 construct: purchased INDIGO Bioscience #1B06001-32; host or cells: AhR Reporter Cell (kit's proprietary reporter cells)
T1 sequence (P35869 11-848): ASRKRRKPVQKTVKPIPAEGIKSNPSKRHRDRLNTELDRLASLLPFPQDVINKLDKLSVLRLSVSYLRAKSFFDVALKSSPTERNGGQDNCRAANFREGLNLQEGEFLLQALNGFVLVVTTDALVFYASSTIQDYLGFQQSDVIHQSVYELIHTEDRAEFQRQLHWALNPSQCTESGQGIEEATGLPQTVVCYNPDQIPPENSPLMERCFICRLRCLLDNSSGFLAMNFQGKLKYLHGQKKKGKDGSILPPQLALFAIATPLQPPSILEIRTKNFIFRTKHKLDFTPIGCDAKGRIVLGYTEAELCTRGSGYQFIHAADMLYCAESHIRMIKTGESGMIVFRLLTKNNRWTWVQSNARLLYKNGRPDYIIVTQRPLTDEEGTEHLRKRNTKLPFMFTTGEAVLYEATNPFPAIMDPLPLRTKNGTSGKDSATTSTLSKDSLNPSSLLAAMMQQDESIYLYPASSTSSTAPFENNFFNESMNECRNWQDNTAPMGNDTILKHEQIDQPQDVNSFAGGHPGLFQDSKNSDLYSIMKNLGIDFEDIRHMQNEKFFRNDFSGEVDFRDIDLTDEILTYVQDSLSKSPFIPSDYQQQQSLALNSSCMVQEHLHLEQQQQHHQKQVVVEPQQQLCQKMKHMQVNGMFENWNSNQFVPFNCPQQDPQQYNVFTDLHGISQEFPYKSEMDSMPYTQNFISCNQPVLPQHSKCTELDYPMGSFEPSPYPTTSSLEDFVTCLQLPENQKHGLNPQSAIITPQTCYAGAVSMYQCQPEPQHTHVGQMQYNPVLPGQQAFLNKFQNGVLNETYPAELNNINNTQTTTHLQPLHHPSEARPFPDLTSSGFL
Summary of the method: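 AhR reporter cells activated with 200 μM kynurenic acid and exposed to compound dilution series in duplicate for 24 h. Firefly luciferase readout, normalized to positive (literature antagonists or unactivated cells) and negative controls.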

Structure (SMILES) | pIC50 [2] | pIC50 [3] | tumor volume compared with Vehicle group [1]
C[C@@H](CO)NC(=O)c1cc(N2CCN(c3ccc(F)cc3)CC2)nn(-c2cnn(C)c2)c1=O [Compound 208] | > 7.00 | > 7.00 | –
C[C@@H](CO)NC(=O)c1cc(-c2cnc(-c3ccc(F)cc3)nc2)nn(-c2cnn(C)c2)c1=O [Compound 186] | > 7.00 | > 7.00 | –
CN(C)C(=O)C(C)(C)NC(=O)c1cc(-c2ccc(C(F)(F)F)cc2)nn(-c2cnn(C)c2)c1=O [Compound 167] | > 7.00 | > 7.00 | –
C[C@H](NC(=O)c1cc(-c2ccc(-c3ccc(Cl)cc3)cc2)nn(-c2cnn(C)c2)c1=O)C(=O)N(C)C [Compound 147] | > 7.00 | > 7.00 | –
Cc1nn(C)c2cc(-c3cc(C(=O)N[C@@H](C)CO)c(=O)n(-c4cnn(C)c4)n3)ccc12 [Compound 175] | 6.40 to 7.00 | > 7.00 | –

Second part, led by results:

pIC50 [2] | pIC50 [3] | Structure (SMILES) | tumor volume compared with Vehicle group [1]
> 7.00 | > 7.00 | C[C@@H](CO)NC(=O)c1cc(-c2ccc(-c3ccc(F)cc3)nc2)nn(-c2cnn(C)c2)c1=O [example 184] | significantly reduced tumor volume
> 7.00 | > 7.00 | CNC(=O)[C@H](C)NC(=O)c1cc(-c2ccc(OC(F)(F)F)cc2)nn(-c2cnn(C)c2)c1=O [Compound 170] | –
> 7.00 | > 7.00 | CNC(=O)[C@H](C)NC(=O)c1cc(-c2ccc(C(F)(F)F)cc2)nn(-c2cnn(C)c2)c1=O [Compound 169] | –
> 7.00 | > 7.00 | CNC(=O)[C@H](C)NC(=O)c1cc(-c2ccc(-c3ccc(Cl)cc3)nc2)nn(-c2cnn(C)c2)c1=O [Compound 183] | –
> 7.00 | > 7.00 | C[C@@H](CO)NC(=O)c1cc(-c2cnc(-c3cccc(F)c3)nc2)nn(-c2cnn(C)c2)c1=O [Compound 193] | –
